Assay results taken from US10765114B2, “4-amino-6-(pyridyl and 2-substitutedphenyl)-picolinates and 6-amino-2-(pyridyl and 2-substitutedphenyl)-pyrimidine-4-carboxylates and their use as herbicides” (Dow AgroSciences LLC, priority 2013, dated 2020).
Like-named read-outs stand apart in the source and are kept apart here.

Key:
[1] = test system: Key Grass and Sedge Weeds as well as Grass Crops; experiment: Post-Emergent Test II (Table 6); format: in vivo; conditions: post-emergence, 336 h, 14 days after application; for pest or weed control at 70 g/ha: 70 g ai/ha; for pest or weed control at 140 g/ha: 140 g ai/ha
Summary of the method: (§1)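 Seedlings are raised 7-21 days in Metro-Mix 360 (pH 6.0-6.8) under greenhouse conditions, then sprayed at the first or second true leaf stage. Application is 187 L/ha, with serial rates down to 1/16× of the highest. Plants are subirrigated, and percent injury is rated visually after 14 days.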

[2] = test system: Key Broadleaf Weed and Crop Species; experiment: Post-Emergent Test II (Table 5); format: in vivo; conditions: post-emergence, 336 h; for pest or weed control at 70 g/ha: application rate 70 (kg ai/ha; footnote: g ai/ha); for pest or weed control at 140 g/ha: application rate 140 (kg ai/ha; footnote: g ai/ha)
Summary of the method: as §1

[3] = CYPSS, read-out: Visual Growth Reduction (%) 14 Days After Application CYPSS
[4] = DIGSA: crabgrass (Digitaria sanguinalis), read-out: Visual Growth Reduction (%) 14 Days After Application DIGSA
[5] = ECHSS, read-out: Visual Growth Reduction (%) 14 Days After Application ECHSS
[6] = ORYSS (crop), read-out: Visual Growth Reduction (%) 14 Days After Application ORYSS
[7] = SETFA: giant foxtail (Setaria faberi), read-out: Visual Growth Reduction (%) 14 Days After Application SETFA
[8] = SORVU: grain sorghum (Sorghum vulgare), read-out: Visual Growth Reduction (%) 14 Days After Application SORVU
[9] = TRZSS (crop), read-out: Visual Growth Reduction (%) 14 Days After Application TRZSS
[10] = ZEAMX: maize, corn (Zea mays), read-out: Visual Growth Reduction (%) 14 Days After Application ZEAMX
[11] = Abutilon theophrasti, ABUTH: velvetleaf (Abutilon theophrasti), read-out: Visual Growth Reduction (%) 14 Days After Application ABUTH
[12] = Amaranthus retroflexus, AMARE: redroot pigweed (Amaranthus retroflexus), read-out: Visual Growth Reduction (%) 14 Days After Application AMARE
[13] = Brassica napus, BRSSS: oilseed rape, canola (Brassica napus), read-out: Visual Growth Reduction (%) 14 Days After Application BRSSS
[14] = Chenopodium album, CHEAL: lambsquarters (Chenopodium album), read-out: Visual Growth Reduction (%) 14 Days After Application CHEAL
[15] = Euphorbia heterophylla, EPHHL: wild poinsettia (Euphorbia heterophylla), read-out: Visual Growth Reduction (%) 14 Days After Application EPHHL
[16] = Helianthus annuus, HELAN: sunflower (Helianthus annuus), read-out: Visual Growth Reduction (%) 14 Days After Application HELAN
[17] = Viola tricolor, VIOTR: wild pansy (Viola tricolor), read-out: Visual Growth Reduction (%) 14 Days After Application VIOTR

Row | SMILES | pest or weed control at 70 g/ha [1, 3] [%] | pest or weed control at 140 g/ha [1, 3] [%] | pest or weed control at 70 g/ha [1, 4] [%] | pest or weed control at 140 g/ha [1, 4] [%] | pest or weed control at 70 g/ha [1, 5] [%] | pest or weed control at 140 g/ha [1, 5] [%] | pest or weed control at 70 g/ha [1, 6] [%] | pest or weed control at 140 g/ha [1, 6] [%] | pest or weed control at 70 g/ha [1, 7] [%] | pest or weed control at 140 g/ha [1, 7] [%] | pest or weed control at 70 g/ha [1, 8] [%] | pest or weed control at 140 g/ha [1, 8] [%] | pest or weed control at 70 g/ha [1, 9] [%] | pest or weed control at 140 g/ha [1, 9] [%] | pest or weed control at 70 g/ha [1, 10] [%] | pest or weed control at 140 g/ha [1, 10] [%] | pest or weed control at 70 g/ha [2, 11] [%] | pest or weed control at 140 g/ha [2, 11] [%] | pest or weed control at 70 g/ha [2, 12] [%] | pest or weed control at 140 g/ha [2, 12] [%] | also measured
1 | COC(=O)c1nc(-c2ccc(C(F)(F)F)nc2)c(C)c(N)c1Cl [Compound 32] | 95 to 100 | 95 to 100 | 75 to 84 | 75 to 84 | 85 to 94 | 85 to 94 | 0 to 29 | 0 to 29 | 85 to 94 | 85 to 94 | 60 to 74 | 75 to 84 | 60 to 74 | 60 to 74 | 60 to 74 | 60 to 74 | 45 to 59 | 85 to 94 | 0 to 29 | 0 to 29 | pest or weed control at 70 g/ha [2, 13]: 60 to 74%; pest or weed control at 140 g/ha [2, 13]: 75 to 84%; pest or weed control at 70 g/ha [2, 14]: 85 to 94%; pest or weed control at 140 g/ha [2, 14]: 85 to 94%; pest or weed control at 70 g/ha [2, 15]: 0 to 29%; pest or weed control at 140 g/ha [2, 15]: 0 to 29%; pest or weed control at 70 g/ha [2, 16]: 95 to 100%; pest or weed control at 140 g/ha [2, 16]: 95 to 100%; pest or weed control at 70 g/ha [2, 17]: 45 to 59%; pest or weed control at 140 g/ha [2, 17]: 75 to 84%; melting point: 145 °C
2 | Nc1c(Cl)c(C(=O)O)nc(-c2ccc(C(F)(F)F)nc2)c1Cl [Compound 33] | 95 to 100 | 95 to 100 | 45 to 59 | 60 to 74 | 60 to 74 | 60 to 74 | 0 to 29 | 0 to 29 | 75 to 84 | 75 to 84 | 75 to 84 | 75 to 84 | 30 to 44 | 45 to 59 | 60 to 74 | 60 to 74 | 0 to 29 | 0 to 29 | 60 to 74 | 95 to 100 | pest or weed control at 70 g/ha [2, 13]: 0 to 29%; pest or weed control at 140 g/ha [2, 13]: 30 to 44%; pest or weed control at 70 g/ha [2, 14]: 85 to 94%; pest or weed control at 140 g/ha [2, 14]: 85 to 94%; pest or weed control at 70 g/ha [2, 15]: 75 to 84%; pest or weed control at 140 g/ha [2, 15]: 75 to 84%; pest or weed control at 70 g/ha [2, 16]: 85 to 94%; pest or weed control at 140 g/ha [2, 16]: 95 to 100%; pest or weed control at 70 g/ha [2, 17]: 0 to 29%; pest or weed control at 140 g/ha [2, 17]: 0 to 29%; melting point: 155 to 158 °C
3 | COC(=O)c1nc(-c2ccc(C(F)(F)F)nc2C)c(F)c(N)c1Cl [Compound 35] | 0 to 29 | 0 to 29 | 0 to 29 | 0 to 29 | 0 to 29 | 0 to 29 | 0 to 29 | 0 to 29 | 0 to 29 | 0 to 29 | 0 to 29 | 0 to 29 | 0 to 29 | 0 to 29 | 0 to 29 | 0 to 29 | 0 to 29 | 0 to 29 | 0 to 29 | 0 to 29 | pest or weed control at 70 g/ha [2, 13]: 0 to 29%; pest or weed control at 140 g/ha [2, 13]: 0 to 29%; pest or weed control at 70 g/ha [2, 14]: 0 to 29%; pest or weed control at 140 g/ha [2, 14]: 0 to 29%; pest or weed control at 70 g/ha [2, 15]: 0 to 29%; pest or weed control at 140 g/ha [2, 15]: 0 to 29%; pest or weed control at 70 g/ha [2, 16]: 0 to 29%; pest or weed control at 140 g/ha [2, 16]: 0 to 29%; pest or weed control at 70 g/ha [2, 17]: 0 to 29%; pest or weed control at 140 g/ha [2, 17]: 0 to 29%; melting point: 160 °C
